Assay results: ChEMBL document CHEMBL5291721, “A preclinical secondary pharmacology resource illuminates target-adverse drug reaction associations of marketed drugs” (Nat Commun, 2023)

Experiments:
[1] = biological target: T1, Alpha-2A adrenergic receptor (Homo sapiens, UniProt P08913); format: functional, cell-based
T1 sequence (P08913 whole entry): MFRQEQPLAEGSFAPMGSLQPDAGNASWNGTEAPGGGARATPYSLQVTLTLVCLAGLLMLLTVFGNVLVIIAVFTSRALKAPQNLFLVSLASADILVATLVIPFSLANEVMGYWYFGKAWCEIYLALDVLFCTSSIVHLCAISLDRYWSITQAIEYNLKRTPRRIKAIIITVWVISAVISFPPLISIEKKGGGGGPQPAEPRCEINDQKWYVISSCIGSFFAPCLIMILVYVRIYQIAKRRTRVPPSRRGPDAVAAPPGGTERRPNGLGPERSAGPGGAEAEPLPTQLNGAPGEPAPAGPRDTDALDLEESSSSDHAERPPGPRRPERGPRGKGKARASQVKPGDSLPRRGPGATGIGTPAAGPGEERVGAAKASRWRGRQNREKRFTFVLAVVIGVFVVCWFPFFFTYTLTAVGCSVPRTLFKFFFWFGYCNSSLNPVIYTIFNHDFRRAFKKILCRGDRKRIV

[2] = biological target: T1, Alpha-2A adrenergic receptor; format: functional, cell-based; remark: listed apart in the source
[3] = biological target: Cannabinoid receptor 1 (Homo sapiens, UniProt P21554); format: functional, cell-based
[4] = biological target: T2, Glucocorticoid receptor (Homo sapiens, UniProt P04150)
T2 sequence (P04150 whole entry): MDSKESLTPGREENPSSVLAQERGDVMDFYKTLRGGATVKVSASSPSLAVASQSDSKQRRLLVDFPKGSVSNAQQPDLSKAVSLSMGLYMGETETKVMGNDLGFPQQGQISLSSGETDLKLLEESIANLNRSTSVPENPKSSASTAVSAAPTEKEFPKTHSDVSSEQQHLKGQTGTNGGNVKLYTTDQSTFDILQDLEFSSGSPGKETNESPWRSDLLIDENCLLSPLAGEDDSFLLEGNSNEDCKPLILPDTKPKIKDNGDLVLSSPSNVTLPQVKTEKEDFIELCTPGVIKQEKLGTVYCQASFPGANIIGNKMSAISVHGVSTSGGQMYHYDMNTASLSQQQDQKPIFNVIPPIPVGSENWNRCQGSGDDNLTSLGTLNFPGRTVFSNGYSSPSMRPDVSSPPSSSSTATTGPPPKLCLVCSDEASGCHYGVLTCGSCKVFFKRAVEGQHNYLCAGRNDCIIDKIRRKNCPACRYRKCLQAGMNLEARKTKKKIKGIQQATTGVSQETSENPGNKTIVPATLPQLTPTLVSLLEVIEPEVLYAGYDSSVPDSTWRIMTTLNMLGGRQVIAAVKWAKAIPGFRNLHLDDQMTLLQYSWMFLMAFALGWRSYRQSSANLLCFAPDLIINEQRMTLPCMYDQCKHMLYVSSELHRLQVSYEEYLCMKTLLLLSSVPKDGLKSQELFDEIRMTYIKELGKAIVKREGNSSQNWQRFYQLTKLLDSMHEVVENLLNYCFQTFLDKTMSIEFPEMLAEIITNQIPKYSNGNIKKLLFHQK

[5] = biological target: T3, Progesterone receptor (Homo sapiens, UniProt P06401); format: functional
T3 sequence (P06401 whole entry): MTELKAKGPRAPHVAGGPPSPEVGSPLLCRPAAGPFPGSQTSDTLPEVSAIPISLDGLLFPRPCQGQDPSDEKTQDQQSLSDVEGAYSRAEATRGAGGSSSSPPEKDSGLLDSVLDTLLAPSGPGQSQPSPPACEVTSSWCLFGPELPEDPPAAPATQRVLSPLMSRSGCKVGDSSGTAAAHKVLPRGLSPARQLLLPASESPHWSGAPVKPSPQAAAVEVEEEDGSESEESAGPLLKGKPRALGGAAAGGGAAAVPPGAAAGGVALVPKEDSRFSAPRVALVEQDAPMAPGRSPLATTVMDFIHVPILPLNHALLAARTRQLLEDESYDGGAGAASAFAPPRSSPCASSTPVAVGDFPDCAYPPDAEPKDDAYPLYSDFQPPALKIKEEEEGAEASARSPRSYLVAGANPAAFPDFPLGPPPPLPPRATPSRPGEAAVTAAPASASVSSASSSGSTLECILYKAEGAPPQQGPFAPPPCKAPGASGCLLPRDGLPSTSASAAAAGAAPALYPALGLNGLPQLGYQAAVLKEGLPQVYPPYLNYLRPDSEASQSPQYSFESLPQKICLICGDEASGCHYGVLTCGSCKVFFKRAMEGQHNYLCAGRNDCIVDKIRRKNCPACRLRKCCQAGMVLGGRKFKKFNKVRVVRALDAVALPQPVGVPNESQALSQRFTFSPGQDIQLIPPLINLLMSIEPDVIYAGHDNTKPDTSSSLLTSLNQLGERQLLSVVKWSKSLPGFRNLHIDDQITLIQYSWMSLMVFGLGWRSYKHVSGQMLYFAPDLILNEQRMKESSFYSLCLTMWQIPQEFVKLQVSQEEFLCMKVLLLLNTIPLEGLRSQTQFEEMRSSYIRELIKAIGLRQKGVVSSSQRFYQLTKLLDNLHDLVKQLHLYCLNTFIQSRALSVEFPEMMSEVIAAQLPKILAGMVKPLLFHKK

[6] = biological target: T4, Prostaglandin G/H synthase 1 (Rattus norvegicus, UniProt Q63921); format: functional
T4 sequence (Q63921 whole entry): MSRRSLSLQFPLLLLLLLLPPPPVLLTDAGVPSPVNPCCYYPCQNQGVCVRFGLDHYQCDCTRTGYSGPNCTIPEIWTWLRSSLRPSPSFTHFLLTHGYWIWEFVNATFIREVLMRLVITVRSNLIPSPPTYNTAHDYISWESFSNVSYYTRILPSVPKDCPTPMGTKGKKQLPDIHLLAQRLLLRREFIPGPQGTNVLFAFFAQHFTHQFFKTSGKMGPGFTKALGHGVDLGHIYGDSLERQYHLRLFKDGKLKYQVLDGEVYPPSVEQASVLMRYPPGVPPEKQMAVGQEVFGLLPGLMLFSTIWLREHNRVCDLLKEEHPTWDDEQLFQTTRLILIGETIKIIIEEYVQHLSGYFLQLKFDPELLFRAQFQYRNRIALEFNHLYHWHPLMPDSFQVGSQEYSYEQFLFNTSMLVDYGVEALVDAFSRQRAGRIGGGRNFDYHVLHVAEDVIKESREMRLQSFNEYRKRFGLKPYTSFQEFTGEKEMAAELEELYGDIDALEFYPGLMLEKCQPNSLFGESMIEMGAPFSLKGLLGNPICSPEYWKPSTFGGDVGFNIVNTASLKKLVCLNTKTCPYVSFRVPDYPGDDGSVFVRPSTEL
Also: assay procedure not described here.

Chain of Cannabinoid receptor 1 (P21554 whole entry): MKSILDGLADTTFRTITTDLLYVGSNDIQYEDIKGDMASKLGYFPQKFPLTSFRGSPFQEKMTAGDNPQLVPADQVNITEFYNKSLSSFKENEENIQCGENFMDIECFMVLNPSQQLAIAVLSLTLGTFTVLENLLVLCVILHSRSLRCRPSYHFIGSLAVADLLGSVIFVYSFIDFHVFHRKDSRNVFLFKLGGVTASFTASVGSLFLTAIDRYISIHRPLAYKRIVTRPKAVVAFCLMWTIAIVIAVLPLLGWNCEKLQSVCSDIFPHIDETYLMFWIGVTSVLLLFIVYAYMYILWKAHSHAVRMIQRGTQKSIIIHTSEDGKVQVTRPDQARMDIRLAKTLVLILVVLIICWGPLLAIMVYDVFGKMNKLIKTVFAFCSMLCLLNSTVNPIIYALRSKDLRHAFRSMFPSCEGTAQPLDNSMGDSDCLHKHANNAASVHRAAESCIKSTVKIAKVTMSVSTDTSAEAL

SMILES	AC50 [1] [µM]	AC50 [2] [µM]	AC50 [3] [µM]	AC50 [4] [µM]	AC50 [5] [µM]	AC50 [6] [µM]
CN1c2ccccc2C(NCCCCCCC(=O)O)c2ccc(Cl)cc2S1(=O)=O (centres undefined) [TIANEPTINE]	> 30	> 30	> 30	> 30	> 30	> 30
CC(C)(C)NC[C@H](O)COc1nsnc1N1CCOCC1 [TIMOLOL]	> 30	> 30	> 30	> 30	> 30	> 30
COc1cc2c(Nc3ccc(Br)cc3F)ncnc2cc1OCC1CCN(C)CC1 [VANDETANIB]	> 30	2.1	> 30	> 30	> 10	> 30
C=CC(N)CCC(=O)O (centres undefined) [VIGABATRIN]	> 10	> 10	> 30	> 10	> 10	> 10
